Laboratory results as given in patent publication US10226451B2, “Substituted bicyclic compounds as bromodomain inhibitors” (ZENITH EPIGENETICS LTD, priority 2013, dated 2019).

Legend:
[1] = tested on: hIL-17 mRNA in human peripheral blood mononuclear cells; experiment: Inhibition of hIL-17 mRNA transcription in OKT3-stimulated PBMC; type: cell-based; details: OKT3 antibody, 6 h, read-out: IL-17 activity
Method: In this example, hIL-17 mRNA in human peripheral blood mononuclear cells were quantitated to measure the transcriptional inhibition of hIL-17 when treated with a compound of the present disclosure.
Human peripheral blood mononuclear cells were plated (2.0×10^5 cells per well) in a 96-well plate in 45 μL OpTimizer T Cell expansion media (Life Technologies) containing 20 ng/ml IL-2 and penicillin/streptomycin. The cells were treated with increasing concentrations of the test compound or DMSO (0.1%), and incubated at 37° C., 5% CO2 for 1 h before addition of 10× stock OKT3 antibody at 10 ug/ml in media. Triplicate wells were used for each concentration. Cells were incubated at 37° C., 5% CO2 for 6 h before the cells were harvested. At time of harvest, cells were pelleted by centrifugation at 800 rpm for 5 min. Cells were harvested using the mRNA Catcher PLUS kit according to manufacturer's instructions. The eluted mRNA was then used in a one-step quantitative real-time PCR reaction, using components of the RNA UltraSense™ One-Step Kit (Life Technologies) together with Applied Biosystems TaqMan® primer-probes for hIL-17 and Cyclophilin. Real-time PCR plates were run on a ViiA™7 real time PCR machine (Applied Biosystems), data was analyzed, normalizing the Ct values for hIL-17 to an internal control, prior to determining the fold induction of each unknown sample, relative to the control.

[2] = tested on: Human AML MV-4-11 cells; experiment: Inhibition of cell proliferation in MV4-11 cells (CellTiter Aqueous One); type: cell-based; details: 72 h
Method in brief: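 MV4-11 cells at 5×10^4/well in IMDM with 10% FBS were exposed to increasing compound concentrations or 0.1% DMSO, in triplicate, for 72 h at 37 °C. A further 3-4 h with CellTiter Aqueous One reagent followed. A490, blank-corrected and expressed relative to DMSO, gave IC50.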

[3] = tested on: hIL-6 mRNA in U937 cells; experiment: Inhibition of hIL-6 mRNA transcription in LPS-stimulated U937 cells; type: cell-based; details: Homo sapiens, U-937, PMA-differentiated U937 cells, LPS 1 ug/mL, 3 h, read-out: IL-6 activity
Method in brief: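 U937 cells were differentiated to macrophages with 60 ng/mL PMA for 3 days, pretreated 1 h with compound in 0.1% DMSO, then stimulated with 1 ug/mL E. coli LPS for 3 h at 37° C. hIL-6 mRNA was quantified by one-step TaqMan RT-qPCR, normalized to cyclophilin, as fold expression versus control.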

[4] = tested on: hApoA-I mRNA in Huh7 cells; experiment: Up-regulation of hApoA-1 mRNA transcription in Huh7 cells; type: cell-based, Human; details: EC170, Huh7 cells, 48 h
Method: In this example, hApoA-I mRNA in tissue culture cells was quantitated to measure the transcriptional up-regulation of hApoA-I when treated with a compound of the present disclosure.
Huh7 cells (2.5×10^5 per well) were plated in a 96-well plate using 100 μL DMEM per well, (Gibco DMEM supplemented with penicillin/streptomycin and 10% FBS), 72 h before the addition of the compound. The cells are treated with increasing concentrations of the compound or DMSO (0.1%), and incubated at 37° C., 5% CO2 for 48 h. Spent media was removed from the Huh-7 cells and placed on ice for immediate use with the “LDH cytotoxicity assay Kit II” from Abcam. The cells remaining in the plate were rinsed with 100 μL PBS. Cells were harvested using the mRNA Catcher PLUS kit according to manufacturer's instructions. The eluted mRNA was then used in a one-step quantitative real-time PCR reaction, using components of the RNA UltraSense™ One-Step Kit (Life Technologies) together with Applied Biosystems TaqMan® primer-probes for hApoA-I and Cyclophilin. Real-time PCR plates were run on a ViiA™7 real time PCR machine (Applied Biosystems), data was analyzed, normalizing the Ct values for hApoA-1 to an internal control, prior to determining the fold induction of each unknown sample, relative to the control.

[5] = biological target: T1, Brd4 bromodomain 1 (BRD4(1)) (Homo sapiens, UniProt O60885); experiment: Inhibition of tetra-acetylated histone H4 binding to Brd4 bromodomain 1 (HTRF/FRET); details: tetra-acetylated histone H4 peptide, His-tagged bromodomain 200 nM, 2 h
T1 construct: made in house; host or cells: E. coli BL21(DE3)
Method in brief: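 N-terminally His-tagged bromodomain (200 nM), expressed in E. coli and purified by Ni affinity and size exclusion, was incubated with biotinylated tetra-acetylated H4 peptide (25-50 nM), Eu-cryptate streptavidin and XL665 anti-His in HEPES pH 7.4 buffer with 0.2% DMSO. Reactions ran 2 h at room temperature. IC50 came from the 665/620 nm fluorescence decrease.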

[6] = tested on: c-myc in Human AML MV4-11 cells; experiment: Inhibition of c-MYC expression (mRNA, real-time PCR) in MV4-11 cells; type: cell-based; details: 3 h, mRNA by real-time PCR
Method in brief: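 Cells at 2.5×10^4 per well in IMDM/10% FBS were treated with rising compound concentrations or 0.1% DMSO for 3 h at 37° C., in triplicate. cMYC mRNA was measured by one-step TaqMan qRT-PCR, normalised to cyclophilin, and expressed as fold expression relative to control.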

Row | Compound | IC50 [1] [µM] | IC50 [2] [µM] | IC50 [3] [µM] | ApoA-1 activity [4] | IC50 [5] [µM] | IC50 [6] [µM]
1 | Cc1nn(C)cc1-c1cc(-c2c(C)noc2C)cc2[nH]c(=O)n(C)c12 [Example Compound 7, 7-(1,3-dimethyl-1H-pyrazol-4-yl)-5-(3,5-dimethylisoxazol-4-yl)-1-methyl-1H-benzo[d]imidazol-2(3H)-one] | 0.3 to 3 | ≤ 0.3 | ≤ 0.3 | +++ (EC170 value less than or equal to 0.3 μM were deemed to be highly active (+++)) | ≤ 0.3 | ≤ 0.3
2 | COc1ncccc1-c1cc(-c2c(C)noc2C)cc2[nH]c(=O)n(C)c12 [Example Compound 13, 5-(3,5-dimethylisoxazol-4-yl)-7-(2-methoxypyridin-3-yl)-1-methyl-1H-benzo[d]imidazol-2(3H)-one] | 0.3 to 3 | 0.3 to 3 | 0.3 to 3 | +++ (EC170 value less than or equal to 0.3 μM were deemed to be highly active (+++)) | ≤ 0.3 | ≤ 0.3
